Literature values as cited in patent publication EP4563141A1, “SELF-EMULSIFYING FORMULATION FOR TOPICAL USE” (Guidotti, Elena, priority 2023, dated 2025).
Read-outs that look alike come from different tables or passages of the source.

Legend:
[1] = human; 4% (unspecified isomer); maximization tests or repeated insult tests
[2] = not given; remark: listed apart in the source
[3] = several drugs, particularly 5-fluorouracil, with the use of nerolidol
[4] = compared with animals in the control group
[5] = human; 4% nerolidol (unspecified isomer); single occlusive application for 48 h
[6] = not given; remark: listed apart in the source
[7] = biological target: CB2 (Homo sapiens, UniProt P34972)
CB2, sequence (P34972 whole entry, species assumed): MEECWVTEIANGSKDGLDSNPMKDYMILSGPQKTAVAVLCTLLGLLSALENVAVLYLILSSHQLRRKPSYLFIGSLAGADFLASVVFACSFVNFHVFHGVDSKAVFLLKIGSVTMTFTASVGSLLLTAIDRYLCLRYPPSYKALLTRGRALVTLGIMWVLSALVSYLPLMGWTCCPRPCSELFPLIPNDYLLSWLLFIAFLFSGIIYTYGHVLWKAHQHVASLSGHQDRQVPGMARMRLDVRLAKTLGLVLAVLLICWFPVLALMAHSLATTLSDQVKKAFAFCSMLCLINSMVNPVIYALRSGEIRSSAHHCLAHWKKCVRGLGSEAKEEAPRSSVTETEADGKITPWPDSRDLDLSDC

[8] = system: S. aureus biofilm formation; settings: 0.01% (v/v); trans-nerolidol at a similar concentration
[9] = biological target: CB1 (Homo sapiens, UniProt P21554)
CB1, sequence (P21554 whole entry, species assumed): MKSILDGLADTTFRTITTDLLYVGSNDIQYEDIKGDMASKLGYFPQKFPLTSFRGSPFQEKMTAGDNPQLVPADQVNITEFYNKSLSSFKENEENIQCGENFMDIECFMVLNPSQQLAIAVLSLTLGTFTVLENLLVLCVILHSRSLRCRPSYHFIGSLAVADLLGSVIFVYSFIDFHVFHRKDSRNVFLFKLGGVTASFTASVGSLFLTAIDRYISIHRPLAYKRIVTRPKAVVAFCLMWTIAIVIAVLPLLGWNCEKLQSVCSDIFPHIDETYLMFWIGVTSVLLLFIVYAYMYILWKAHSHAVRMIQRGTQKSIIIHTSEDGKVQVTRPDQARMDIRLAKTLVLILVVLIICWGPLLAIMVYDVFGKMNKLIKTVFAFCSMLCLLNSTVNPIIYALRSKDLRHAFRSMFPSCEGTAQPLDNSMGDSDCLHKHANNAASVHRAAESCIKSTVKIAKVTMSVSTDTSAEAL

C=CC(C)(O)CCC=C(C)CCC=C(C)C (centres unmarked) [nerolidol, 3,7,11-trimethyl-1,6,10-Dodecatrien-3-ol]
cross-sensitization (guinea pigs induced with farnesyl acetate): no cross-sensitization was observed | skin sensitization (guinea pigs, two adjuvant tests, concentrations of 3% and 10%): weak reactions | skin sensitization [1]: did not cause positive reactions | skin irritation ([2]; 5% in diethyl phthalate, eliminated after 48 h): very mild edema in one animal | skin irritation ([2]; rabbits, undiluted (unspecified isomer), intact and abraded skin, after 48 h): well-defined erythema or mild edema | increase in diffusion rate for transdermal penetration [3]: more than 20 fold | reduction in ulcerative lesion index (ULI) ([4]; 50 mg/k): 41.22 | reduction in ulcerative lesion index (ULI) ([4]; 250 mg/k): 51.31 | reduction in ulcerative lesion index (ULI) ([4]; 500 mg/k): 56.57 | skin irritation [5]: did not cause skin irritation

C=CCc1ccc(O)c(-c2cc(CC=C)ccc2O)c1 [magnolol]
LogP [6]: over 4 | mode of activity at CB2 [7]: partial CBD receptor agonist

C=CC(C)(O)CC/C=C(/C)CCC=C(C)C (stereo not drawn) [Cis-nerolidol]
inhibit S. aureus biofilm formation [8]: more than 80%

C=CCc1ccc(O)c(-c2ccc(O)c(CC=C)c2)c1 [honokiol]
LogP [6]: over 4 | mode of activity at CB2 [7]: antagonistic properties | mode of activity at CB1 [9]: full agonistic activity

C=CC(C)(O)CC/C=C(\C)CCC=C(C)C (stereo not drawn) [trans-nerolidol]
inhibit S. aureus biofilm formation [8]: 45%
